The results in this text go back to ChEMBL document CHEMBL4390667, “Novel tacrine-tryptophan hybrids: Multi-target directed ligands as potential treatment for Alzheimer's disease” (Eur J Med Chem, 2019).

The nature of data set [1]: Toxicity in Wistar rat assessed as induction of intermittent tremors and prostration at 70 mg/kg, ip measured during first 2 hrs then periodically for 48 hrs. The conditions noted are these: in vivo. The data set is classed as organism-based.
The nature of data set [2]: Toxicity in Wistar rat assessed as effect on time spent in the target sector at 100 nM, icv by Morris water maze assay. The conditions noted are these: in vivo, icv_or_intrathecal, 0.1 µM.
Data set [3] deals with Nitric oxide synthase 1 (Rattus norvegicus, UniProt P29476).
Description: Inhibition of nNOS in Wistar rat cortical homogenates incubated for 30 mins
Data set [4] in a line: Toxicity in Wistar rat assessed as induction of intermittent abnormal breathing pattern at 70 mg/kg, ip measured during first 2 hrs then periodically for 48 hrs. Type of data set: organism-based. The conditions noted are these: in vivo.
Data set [5] is described as follows: Toxicity in Wistar rat assessed as effect on distance moved at 100 nM, icv by Morris water maze assay. The conditions noted are these: in vivo, icv_or_intrathecal, 0.1 µM.
For data set [6], the target named is Cholinesterase (Homo sapiens, UniProt P06276).
Description: Inhibition of human recombinant BChE using butyrylthiocholine iodide as substrate preincubated for 5 mins followed by substrate addition and measured over 2 mins by UV-Vis spectrophotometric analysis based Ellman's method
For data set [7] the following is noted: pampa, pH 7.4, 100 µM.
Description: Effective permeability of the compound in PBS buffer at pH 7.4 at 100 uM after 3 to 6 hrs by PAMPA
For data set [8], the system named is Rattus norvegicus. The experiment in a line: Antialzhemeric activity in Wistar rat model of scopolamine-induced cognition deficit assessed as effect on distance moved at 100 nM, icv dosed 60 mins prior to training trial by Morris water maze test. Type of data set: functional, organism-based.
Data set [9] can be described thus: Toxicity in Wistar rat assessed as induction of persistent oculonasal discharge at 70 mg/kg, ip measured during first 2 hrs then periodically for 48 hrs. Type of data set: organism-based. The conditions noted are these: in vivo.
Data set [10] has as its system Rattus norvegicus. The data set is described as follows: Antialzhemeric activity in Wistar rat model of scopolamine-induced cognition deficit assessed as effect on average distance from platform at 10 nM, icv dosed 60 mins prior to training trial by Morris water maze test. The data set is classed as functional, organism-based.
Data set [11] concerns Rattus norvegicus. The experiment in a line: Antialzhemeric activity in Wistar rat model of scopolamine-induced cognition deficit assessed as effect on time in target sector at 10 nM, icv dosed 60 mins prior to training trial by Morris water maze test. The data set is classed as functional, organism-based.
For data set [12], the system named is Rattus norvegicus. The data set is described as follows: Antialzhemeric activity in Wistar rat model of scopolamine-induced cognition deficit assessed as effect on distance moved at 10 nM, icv dosed 60 mins prior to training trial by Morris water maze test. Type of data set: functional, organism-based.
Data set [13] concerns Rattus norvegicus. The experiment in a line: Antialzhemeric activity in Wistar rat model of scopolamine-induced cognition deficit assessed as effect on time in target sector at 100 nM, icv dosed 60 mins prior to training trial by Morris water maze test. Type of data set: functional, organism-based.
Data set [14] has as its system Rattus norvegicus. The data set is described as follows: Antialzhemeric activity in icv dosed Wistar rat model of scopolamine-induced cognition deficit assessed as effect on distance moved dosed 60 mins prior to training trial by Morris water maze test. The data set is classed as functional, organism-based.
The nature of data set [15]: Toxicity in Wistar rat assessed as effect on escape latency at 100 nM, icv by Morris water maze assay. To be noted: in vivo, icv_or_intrathecal, 0.1 µM.
A short description of data set [16]: Toxicity in ip dosed Wistar rat assessed as maximum tolerated dose measured during first 2 hrs then periodically for 48 hrs. The data set is classed as organism-based. To be noted: in vivo.
Data set [17] has as its system Rattus norvegicus. The data set is described as follows: Antialzhemeric activity in Wistar rat model of scopolamine-induced cognition deficit assessed as effect on escape latency at 100 nM, icv dosed 60 mins prior to training trial by Morris water maze test. The data set is classed as functional, organism-based.
Data set [18] concerns Rattus norvegicus. The experiment in a line: Antialzhemeric activity in Wistar rat model of scopolamine-induced cognition deficit assessed as effect on escape latency at 10 nM, icv dosed 60 mins prior to training trial by Morris water maze test. The data set is classed as functional, organism-based.
The subject of data set [19] is Rattus norvegicus. The data set is described as follows: Antialzhemeric activity in icv dosed Wistar rat model of scopolamine-induced cognition deficit assessed as effect on time in target sector dosed 60 mins prior to training trial by Morris water maze test. Type of data set: functional, organism-based.
The subject of data set [20] is CHO-K1. The experiment in a line: cells. The conditions noted are these: Cricetulus griseus, CHO-K1, 24 h.
Description: Cytotoxicity against CHOK1 cells assessed as reduction in cell viability incubated for 24 hrs by MTT assay
Data set [21] deals with Acetylcholinesterase (Homo sapiens, UniProt P22303).
Description: Inhibition of human recombinant AChE using acetylthiocholine iodide as substrate preincubated for 5 mins followed by substrate addition and measured over 2 mins by UV-Vis spectrophotometric analysis based Ellman's method
Data set [22] is described as follows: Toxicity in Wistar rat assessed as induction of tremors at 100 nM, icv by Morris water maze assay. To be noted: in vivo, icv_or_intrathecal, 0.1 µM.
The subject of data set [23] is Rattus norvegicus. The experiment in a line: Antialzhemeric activity in Wistar rat model of scopolamine-induced cognition deficit assessed as effect on average distance from platform at 100 nM, icv dosed 60 mins prior to training trial by Morris water maze test. The data set is classed as functional, organism-based.
For data set [24], the system named is Rattus norvegicus. The data set is described as follows: Antialzhemeric activity in icv dosed Wistar rat model of scopolamine-induced cognition deficit assessed as effect on average distance from platform dosed 60 mins prior to training trial by Morris water maze test. The data set is classed as functional, organism-based.
In data set [25] the test system is Rattus norvegicus. The experiment in a line: Antialzhemeric activity in icv dosed Wistar rat model of scopolamine-induced cognition deficit assessed as effect on escape latency dosed 60 mins prior to training trial by Morris water maze test. The data set is classed as functional, organism-based.
Data set [26] deals with HepG2. The data set is described as follows: cells. To be noted: Homo sapiens, HepG2, 24 h.
Description: Cytotoxicity against human HepG2 cells assessed as reduction in cell viability incubated for 24 hrs by MTT assay
Data set [27] has as its target Acetylcholinesterase (Electrophorus electricus, UniProt O42275). The data set is described as follows: Displacement of propidium iodide from peripheral binding site of electric eel AChE assessed as dissociation constant at 8 to 56 uM by spectrofluorometry based Taylor and Lappi method.
Data set [28] can be described thus: Toxicity in Wistar rat assessed as induction of partial piloerection at 70 mg/kg, ip measured during first 2 hrs then periodically for 48 hrs. Type of data set: organism-based. The conditions noted are these: in vivo.
The nature of data set [29]: Toxicity in Wistar rat assessed as effect on average distance from platform at 100 nM, icv by Morris water maze assay. The conditions noted are these: in vivo, icv_or_intrathecal, 0.1 µM.
Data set [30] can be described thus: Toxicity in Wistar rat assessed as induction of diminishing spontaneously and prostration at 70 mg/kg, ip measured during first 2 hrs. The data set is classed as organism-based. The conditions noted are these: in vivo.
The nature of data set [31]: Toxicity in Wistar rat assessed as induction of salivation at 100 nM, icv by Morris water maze assay. The conditions noted are these: in vivo, icv_or_intrathecal, 0.1 µM.
Data set [32] can be described thus: Toxicity in Wistar rat assessed as change in body weight weight at 70 mg/kg, ip after 24 and 48 hrs. The data set is classed as organism-based. To be noted: in vivo.

Active and inactive are the calls of the source. No cut-off for these calls is given here.

As a reminder, the IC50 is the concentration at which inhibition is half-maximal. Read a low IC50 as greater potency. The term MTD denotes the highest dose tested that stayed within the study's limit of toxicity. The Kd is the constant that tells how readily two partners part at equilibrium.

Nitric oxide synthase 1, sequence (P29476 whole entry, looked up): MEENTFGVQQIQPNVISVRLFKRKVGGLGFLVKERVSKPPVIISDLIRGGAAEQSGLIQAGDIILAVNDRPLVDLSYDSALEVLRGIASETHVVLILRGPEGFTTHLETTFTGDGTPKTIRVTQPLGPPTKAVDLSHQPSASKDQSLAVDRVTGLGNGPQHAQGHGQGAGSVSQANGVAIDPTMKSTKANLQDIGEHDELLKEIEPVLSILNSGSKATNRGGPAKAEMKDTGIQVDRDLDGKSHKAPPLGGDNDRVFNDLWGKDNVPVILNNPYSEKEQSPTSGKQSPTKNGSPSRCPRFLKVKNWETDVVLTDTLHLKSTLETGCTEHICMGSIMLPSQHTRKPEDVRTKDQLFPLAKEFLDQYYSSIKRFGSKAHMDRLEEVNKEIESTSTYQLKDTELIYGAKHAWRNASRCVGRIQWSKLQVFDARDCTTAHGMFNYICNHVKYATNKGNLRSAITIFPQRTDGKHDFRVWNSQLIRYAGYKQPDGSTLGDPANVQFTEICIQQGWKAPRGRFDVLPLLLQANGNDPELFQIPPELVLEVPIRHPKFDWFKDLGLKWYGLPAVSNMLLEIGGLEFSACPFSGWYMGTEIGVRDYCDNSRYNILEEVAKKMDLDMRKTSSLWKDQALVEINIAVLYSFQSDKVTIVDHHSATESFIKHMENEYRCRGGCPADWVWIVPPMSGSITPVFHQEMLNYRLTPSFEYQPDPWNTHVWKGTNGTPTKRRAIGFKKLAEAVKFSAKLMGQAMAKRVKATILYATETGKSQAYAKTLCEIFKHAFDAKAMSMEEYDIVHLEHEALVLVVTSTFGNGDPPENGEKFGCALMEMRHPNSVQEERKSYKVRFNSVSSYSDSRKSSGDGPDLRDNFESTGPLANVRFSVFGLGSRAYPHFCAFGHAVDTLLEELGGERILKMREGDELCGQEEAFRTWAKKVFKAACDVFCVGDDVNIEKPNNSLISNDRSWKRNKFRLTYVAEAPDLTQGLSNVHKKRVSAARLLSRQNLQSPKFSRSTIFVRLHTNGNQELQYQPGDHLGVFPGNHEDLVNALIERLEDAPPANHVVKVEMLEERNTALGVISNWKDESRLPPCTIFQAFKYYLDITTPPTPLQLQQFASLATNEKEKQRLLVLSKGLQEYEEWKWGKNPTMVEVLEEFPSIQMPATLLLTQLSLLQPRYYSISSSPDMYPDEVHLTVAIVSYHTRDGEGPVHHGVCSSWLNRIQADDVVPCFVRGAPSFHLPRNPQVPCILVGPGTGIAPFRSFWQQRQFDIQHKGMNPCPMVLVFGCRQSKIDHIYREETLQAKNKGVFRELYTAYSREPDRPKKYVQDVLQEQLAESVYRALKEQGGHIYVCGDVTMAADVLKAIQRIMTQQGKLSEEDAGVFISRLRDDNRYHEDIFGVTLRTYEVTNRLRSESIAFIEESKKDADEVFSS
Cholinesterase, sequence (P06276 whole entry): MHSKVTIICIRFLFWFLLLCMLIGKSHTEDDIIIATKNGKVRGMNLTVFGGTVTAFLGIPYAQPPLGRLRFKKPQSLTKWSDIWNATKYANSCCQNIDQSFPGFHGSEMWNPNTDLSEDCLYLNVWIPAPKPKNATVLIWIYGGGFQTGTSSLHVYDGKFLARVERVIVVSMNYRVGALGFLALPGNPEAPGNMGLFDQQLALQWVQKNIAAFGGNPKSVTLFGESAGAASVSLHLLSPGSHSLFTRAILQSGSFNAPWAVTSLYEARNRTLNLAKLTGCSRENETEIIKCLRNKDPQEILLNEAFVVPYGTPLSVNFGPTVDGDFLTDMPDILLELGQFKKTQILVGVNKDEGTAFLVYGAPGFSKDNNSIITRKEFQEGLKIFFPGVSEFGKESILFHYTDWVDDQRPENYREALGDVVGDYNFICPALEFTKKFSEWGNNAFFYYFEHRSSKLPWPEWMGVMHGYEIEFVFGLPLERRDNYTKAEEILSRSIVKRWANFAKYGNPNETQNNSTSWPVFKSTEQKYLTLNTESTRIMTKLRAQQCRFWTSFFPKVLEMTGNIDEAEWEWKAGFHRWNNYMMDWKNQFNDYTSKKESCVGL
Acetylcholinesterase (Homo sapiens, UniProt P22303), sequence (P22303 whole entry): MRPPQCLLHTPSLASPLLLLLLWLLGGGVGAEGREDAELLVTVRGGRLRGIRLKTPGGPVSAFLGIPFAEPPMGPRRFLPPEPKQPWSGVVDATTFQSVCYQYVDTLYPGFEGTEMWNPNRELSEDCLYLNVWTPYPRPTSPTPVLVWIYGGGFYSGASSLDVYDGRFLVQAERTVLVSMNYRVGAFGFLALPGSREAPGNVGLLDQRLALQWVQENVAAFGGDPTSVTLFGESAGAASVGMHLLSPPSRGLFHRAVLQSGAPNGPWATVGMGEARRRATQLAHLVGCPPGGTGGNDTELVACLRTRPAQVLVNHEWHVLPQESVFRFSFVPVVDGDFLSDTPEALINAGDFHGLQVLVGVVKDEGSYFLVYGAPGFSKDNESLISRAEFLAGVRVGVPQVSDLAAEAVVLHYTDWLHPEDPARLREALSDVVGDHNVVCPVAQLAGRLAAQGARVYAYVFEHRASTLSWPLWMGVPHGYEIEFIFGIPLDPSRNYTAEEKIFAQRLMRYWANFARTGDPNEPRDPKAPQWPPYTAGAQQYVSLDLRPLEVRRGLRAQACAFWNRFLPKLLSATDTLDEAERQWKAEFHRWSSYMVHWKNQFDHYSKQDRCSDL
Acetylcholinesterase (Electrophorus electricus, UniProt O42275), sequence (O42275 whole entry): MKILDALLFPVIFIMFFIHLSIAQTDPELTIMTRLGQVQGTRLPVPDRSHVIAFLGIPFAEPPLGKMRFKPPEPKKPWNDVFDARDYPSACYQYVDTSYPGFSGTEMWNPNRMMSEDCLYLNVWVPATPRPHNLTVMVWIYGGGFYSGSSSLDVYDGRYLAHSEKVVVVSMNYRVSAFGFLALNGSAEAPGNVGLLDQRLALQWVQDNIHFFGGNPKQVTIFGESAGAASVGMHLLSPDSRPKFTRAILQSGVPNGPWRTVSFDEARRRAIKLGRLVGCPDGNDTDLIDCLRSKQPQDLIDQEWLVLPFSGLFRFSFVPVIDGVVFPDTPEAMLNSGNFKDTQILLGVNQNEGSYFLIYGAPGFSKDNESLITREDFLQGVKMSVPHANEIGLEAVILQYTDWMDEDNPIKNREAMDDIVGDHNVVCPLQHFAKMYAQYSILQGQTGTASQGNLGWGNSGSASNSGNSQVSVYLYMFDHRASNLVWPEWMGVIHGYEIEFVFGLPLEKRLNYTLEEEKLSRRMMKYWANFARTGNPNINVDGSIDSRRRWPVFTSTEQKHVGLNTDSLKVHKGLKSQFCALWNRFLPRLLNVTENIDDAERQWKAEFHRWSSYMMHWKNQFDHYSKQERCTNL

Turning to `Cl.Cl.N[C@@H](Cc1c[nH]c2ccccc12)C(=O)NCCCCCCNc1c2c(nc3cc(Cl)ccc13)CCCC2`, the Activity result in data set [1] is “Toxic”; in data set [2], “Non-Toxic”; in [4], “Toxic”; in data set [5] it was “Non-Toxic”; in [9] it was “Toxic”; in data set [14], “Dose-dependent effect”. Further, the Activity result in data set [15] is “Non-Toxic”; in [19] it was “Dose-dependent effect”; in data set [22] it was “Non-Toxic”; in [24], “Dose-dependent effect”; in data set [25] it was “Dose-dependent effect”; in data set [28] it was “Toxic”. Also, the Activity entry was “Non-Toxic” in data set [29], “Toxic” in data set [30], “Non-Toxic” in data set [31] and “Non-Toxic” in data set [32]. For the same compound, the IC50 in data set [3] was 26 µM; in [6], 0.0091 µM; in [20], 21 µM; in [21], 0.0063 µM; in [26], 4.9 µM. Further, the permeability entry in data set [7] is “Permeable”. For the same compound, the result in [8], in data set [10], in data set [11], in [13], in [17] and in data set [18] was Active. Further, the outcome in data set [23] was Active. Also, in data set [12], the result was inactive. Also, in [16], the maximum tolerated dose (MTD) at 48 h worked out at 70 mg/kg. In addition, in data set [27], the equilibrium dissociation constant (Kd) was 4.82 µM.

As for `Cl.Cl.NC(Cc1c[nH]c2ccccc12)C(=O)NCCCCCCNc1c2c(nc3cc(Cl)ccc13)CCCC2` (racemic), the 50% inhibitory concentration (IC50) in data set [3] was found to be 33 µM; in data set [6], 0.013 µM; in data set [20], 21 µM; in [21] it was 0.0074 µM; in [26], 5.1 µM. The permeability entry in [7] is listed as “Permeable”.
